Data on one molecule can be found in US20150209309A1, “NACA FOR THE TREATMENT OF CHRONIC OR ACUTE COGNITIVE DYSFUNCTION” (Brighton Biotech, Inc, priority 2014, published 2015).

The conditions of data set [1]: cited from earlier work.
For data set [2] the following is noted: in vivo.

For `CC(=O)N[C@@H](CS)C(=O)O` [NAC, N-acetyl-L-cysteine], the “membrane penetration / cell permeability” value in data set [1] is given as “low membrane penetration”. The “crossing of the blood-brain barrier” value in data set [2] is “inability to cross the blood-brain barrier”.
